Data set [1] relates to T1, mushroom tyrosinase (EC 1.14.18.1).
T1 construct: 22 U of mushroom tyrosinase (EC 1.14.18.1)
Briefly: Tyrosinase inhibition assay and kinetics (o-diphenolase activity, L-DOPA substrate). The data set is classed as biochemical, Agaricus bisporus (mushroom). Conditions: for Type of inhibition: Lineweaver-Burk and Dixon plots. The procedure:
The assay mixture contained sodium phosphate buffer (50 mM; pH 6.8), 22 U of mushroom tyrosinase (EC 1.14.18.1; Sigma Chemical Co., St. Louis, USA), L-DOPA substrate (1 mM), and Compound 2 dissolved in DMSO. The final concentration of DMSO in the assay mixture was 0.5%. The o-diphenolase inhibitory activity of Compound 2 was first screened at a final concentration of 30 μM using Ultrospec 2100 pro spectrophotometer (Amersham Biosciences, UK).
The kinetic assays included a range of substrate (0.25-2.0 mM) and Compound 2 concentrations (0.25, 0.5, 1.0, 2.0 μM). The […] was first incubated with the […] for 15 min. at 25° C. followed by addition of substrate. The reaction was continuously monitored in the spectrophotometer and the enzyme velocity was measured from the linear portion of the curve (7). The kinetics data were analyzed by Grafit 7.0.3 software (Erithacus Software Ltd., Staines, UK) utilizing the Lineweaver Burk plot {1/v versus 1/[S]} and the Ki values were calculated using the Dixon plot {1/v versus [I]}.

Each structure is given as a SMILES string. Entries after “also recorded” stand apart in the source; their conditions may differ.

By IC50 is commonly meant the concentration needed to halve the response being measured. For orientation: Ki means a dissociation constant, usually derived from enzyme kinetics or from competition with a known ligand. A word on the melting point: it is the temperature of the solid-liquid transition. As to `NC(=S)N/N=C/c1ccc2[nH]ncc2c1` [Compound 2, 2-((1H-indazol-5-yl)methylene)hydrazinecarbothioamide], the melting point was 258 to 262 °C. Further, the “fold more potent than kojic acid (by Ki)” value in data set [1] (Ki of kojic acid versus Ki of the compound) was 52 fold. Further, the Type of inhibition entry in data set [1] is reported as “competitive inhibitor; also recorded: competitive inhibition”. In addition, the half-maximal inhibitory concentration (IC50) in data set [1] (o-diphenolase activity, L-DOPA substrate, 25° C., pH 6.8, read-out: IC50 (μM ± SEM)) amounted to 0.228 µM. Also, the Ki in data set [1] (o-diphenolase activity, L-DOPA substrate, Dixon plot, 25° C., pH 6.8, read-out: Ki (μM ± SEM)) was determined as 0.0843 µM.
On to `O=c1cc(CO)occ1O` [Kojic acid, kojic acid, reference compound], for which, in data set [1], the Type of inhibition result is on record as “Competitive”.

(Values after patent publication US11970456B1, “Synthesis of thiosemicarbazide analogue as inhibitor of tyrosinase, skin hyperpigmentation, and fruit and/or vegetable browning” (KING SAUD UNIVERSITY, priority 2023, dated 2024).)
